Results published in ChEMBL document CHEMBL4229379, “Synthesis and structure-activity relationship of novel bisindole amidines active against MDR Gram-positive and Gram-negative bacteria” (Eur J Med Chem, 2018).
Converted amounts (≈) assume the structure as drawn.

What was measured:
Format in all cases: functional
Klebsiella aerogenes [1] = test: Antibacterial activity against carbapenem-resistant Enterobacter aerogenes 11-4 after 18 hrs by CLSI broth microdilution method; conditions: 11-4, 18 h
Enterococcus faecalis [2] = test: Antibacterial activity against vancomycin-sensitive Enterococcus faecalis 12-5 after 18 hrs by CLSI broth microdilution method; conditions: 12-5, 18 h
[3] = tested on: Staphylococcus epidermidis; test: Antibacterial activity against methicillin-sensitive Staphylococcus epidermidis ATCC 12228 after 18 hrs by CLSI broth microdilution method; conditions: ATCC 12228, 18 h
Staphylococcus aureus [4] = test: Antibacterial activity against methicillin-sensitive Staphylococcus aureus 15 after 18 hrs by CLSI broth microdilution method; conditions: Staphylococcus aureus, 15, 18 h
Enterococcus faecium [5] = test: Antibacterial activity against vancomycin-sensitive Enterococcus faecium 12-3 after 18 hrs by CLSI broth microdilution method; conditions: 12-3, 18 h
[6] = tested on: Acinetobacter calcoaceticus; test: Antibacterial activity against carbapenem-resistant Acinetobacter calcoaceticus 12-6 after 18 hrs by CLSI broth microdilution method; conditions: 12-6, 18 h
[7] = tested on: Staphylococcus epidermidis; test: Antibacterial activity against methicillin-resistant Staphylococcus epidermidis 12-8 after 18 hrs by CLSI broth microdilution method; conditions: 12-8, 18 h
Klebsiella pneumoniae [8] = test: Antibacterial activity against new delhi metallo-beta-lactamase-1 harboring Klebsiella pneumoniae ATCC BAA-2146 after 18 hrs by CLSI broth microdilution method; conditions: ATCC BAA-2146, 18 h
Proteus vulgaris = test: Antibacterial activity against Proteus vulgaris ATCC 29905 after 18 hrs by CLSI broth microdilution method; conditions: ATCC 29905, 18 h
Pseudomonas aeruginosa [9] = test: Antibacterial activity against Pseudomonas aeruginosa 12-16 after 18 hrs by CLSI broth microdilution method; conditions: 12-16, 18 h
Klebsiella aerogenes [10] = test: Antibacterial activity against Enterobacter aerogenes ATCC 13048 after 18 hrs by CLSI broth microdilution method; conditions: ATCC 13048, 18 h
Escherichia coli [11] = test: Antibacterial activity against extended-spectrum beta-lactamase harboring Escherichia coli 13-1 after 18 hrs by CLSI broth microdilution method; conditions: 13-1, 18 h
Staphylococcus aureus [12] = test: Antibacterial activity against methicillin-resistant Staphylococcus aureus ATCC 33591 after 18 hrs by CLSI broth microdilution method; conditions: ATCC 33591, 18 h
[13] = tested on: Acinetobacter calcoaceticus; test: Antibacterial activity against Acinetobacter calcoaceticus ATCC 19606 after 18 hrs by CLSI broth microdilution method; conditions: ATCC 19606, 18 h
[14] = tested on: Staphylococcus epidermidis; test: Antibacterial activity against methicillin-sensitive Staphylococcus epidermidis 12-6 after 18 hrs by CLSI broth microdilution method; conditions: 12-6, 18 h
Enterobacter cloacae [15] = test: Antibacterial activity against Enterobacter cloacae ATCC 43560 after 18 hrs by CLSI broth microdilution method; conditions: ATCC 43560, 18 h
Enterococcus faecium [16] = test: Antibacterial activity against vancomycin-resistant Enterococcus faecium 12-1 after 18 hrs by CLSI broth microdilution method; conditions: 12-1, 18 h
Klebsiella pneumoniae [17] = test: Antibacterial activity against carbapenem-resistant Klebsiella pneumoniae 12-12 after 18 hrs by CLSI broth microdilution method; conditions: 12-12, 18 h
Staphylococcus aureus [18] = test: Antibacterial activity against methicillin-sensitive Staphylococcus aureus ATCC 29213 after 18 hrs by CLSI broth microdilution method; conditions: ATCC 29213, 18 h
Pseudomonas aeruginosa [19] = test: Antibacterial activity against Pseudomonas aeruginosa ATCC 27853 after 18 hrs by CLSI broth microdilution method; conditions: ATCC 27853, 18 h
Escherichia coli [20] = test: Antibacterial activity against extended-spectrum beta-lactamase deficient Escherichia coli 1515 after 18 hrs by CLSI broth microdilution method; conditions: Escherichia coli, 1515, 18 h
Klebsiella pneumoniae [21] = test: Antibacterial activity against carbapenem-resistant Klebsiella pneumoniae 12-11 after 18 hrs by CLSI broth microdilution method; conditions: 12-11, 18 h
Enterobacter cloacae [22] = test: Antibacterial activity against new delhi metallo-beta-lactamase-1 harboring Enterobacter cloacae 13-1 after 18 hrs by CLSI broth microdilution method; conditions: 13-1, 18 h
Staphylococcus aureus [23] = test: Antibacterial activity against methicillin-sensitive Staphylococcus aureus 12-28 after 18 hrs by CLSI broth microdilution method; conditions: 12-28, 18 h
Klebsiella pneumoniae [24] = test: Antibacterial activity against extended-spectrum beta-lactamase deficient Klebsiella pneumoniae 12-4 after 18 hrs by CLSI broth microdilution method; conditions: 12-4, 18 h
[25] = tested on: Acinetobacter calcoaceticus; test: Antibacterial activity against new delhi metallo-beta-lactamase-1 harboring Acinetobacter calcoaceticus 13-1 after 18 hrs by CLSI broth microdilution method; conditions: 13-1, 18 h
Staphylococcus aureus [26] = test: Antibacterial activity against methicillin-resistant Staphylococcus aureus 12-33 after 18 hrs by CLSI broth microdilution method; conditions: 12-33, 18 h
Escherichia coli [27] = test: Antibacterial activity against extended-spectrum beta-lactamase harboring Escherichia coli CDC1001728 after 18 hrs by CLSI broth microdilution method; conditions: CDC1001728, 18 h
Providencia rettgeri = test: Antibacterial activity against Providencia rettgeri ATCC 31052 after 18 hrs by CLSI broth microdilution method; conditions: ATCC 31052, 18 h
[28] = tested on: Stenotrophomonas maltophilia; test: Antibacterial activity against Stenotrophomonas maltophilia ATCC 13636 after 18 hrs by CLSI broth microdilution method; conditions: ATCC 13636, 18 h
Escherichia coli [29] = test: Antibacterial activity against extended-spectrum beta-lactamase harboring Escherichia coli 12-15 after 18 hrs by CLSI broth microdilution method; conditions: 12-15, 18 h
Serratia marcescens = test: Antibacterial activity against Serratia marcescens ATCC 21074 after 18 hrs by CLSI broth microdilution method; conditions: ATCC 21074, 18 h
Enterococcus faecalis [30] = test: Antibacterial activity against vancomycin-resistant Enterococcus faecalis ATCC 51299 after 18 hrs by CLSI broth microdilution method; conditions: ATCC 51299, 18 h
Proteus mirabilis = test: Antibacterial activity against Proteus mirabilis 12-6 after 18 hrs by CLSI broth microdilution method; conditions: 12-6, 18 h
Enterococcus faecium [31] = test: Antibacterial activity against vancomycin-resistant Enterococcus faecium ATCC 700221 after 18 hrs by CLSI broth microdilution method; conditions: ATCC 700221, 18 h
Enterococcus faecalis [32] = test: Antibacterial activity against vancomycin-sensitive Enterococcus faecalis ATCC 29212 after 18 hrs by CLSI broth microdilution method; conditions: ATCC 29212, 18 h
Enterococcus faecalis [33] = test: Antibacterial activity against vancomycin-resistant Enterococcus faecalis 09-9 after 18 hrs by CLSI broth microdilution method; conditions: 09-9, 18 h
Enterobacter cloacae [34] = test: Antibacterial activity against new delhi metallo-beta-lactamase-1 harboring Enterobacter cloacae CDC1000654 after 18 hrs by CLSI broth microdilution method; conditions: CDC1000654, 18 h
Citrobacter freundii = test: Antibacterial activity against Citrobacter freundii ATCC 43864 after 18 hrs by CLSI broth microdilution method; conditions: ATCC 43864, 18 h
Escherichia coli [35] = test: Antibacterial activity against extended-spectrum beta-lactamase deficient Escherichia coli ATCC 25922 after 18 hrs by CLSI broth microdilution method; conditions: ATCC 25922, 18 h
Klebsiella pneumoniae [36] = test: Antibacterial activity against extended-spectrum beta-lactamase deficient Klebsiella pneumoniae 7 after 18 hrs by CLSI broth microdilution method; conditions: Klebsiella pneumoniae, 7, 18 h
Klebsiella pneumoniae [37] = test: Antibacterial activity against extended-spectrum beta-lactamase harboring Klebsiella pneumoniae 12-8 after 18 hrs by CLSI broth microdilution method; conditions: 12-8, 18 h
Klebsiella pneumoniae [38] = test: Antibacterial activity against new delhi metallo-beta-lactamase-1 harboring Klebsiella pneumoniae 13-1 after 18 hrs by CLSI broth microdilution method; conditions: 13-1, 18 h

## C[C@H]1COc2c(N3CCN(C)CC3)c(F)cc3c(=O)c(C(=O)O)cn1c23.C[C@H]1COc2c(N3CCN(C)CC3)c(F)cc3c(=O)c(C(=O)O)cn1c23.O [LEVOFLOXACIN]
Klebsiella aerogenes [1]
  MIC: 16 µg/mL
Enterococcus faecalis [2]
  MIC: 1 µg/mL
[3]
  MIC: 0.125 µg/mL
Staphylococcus aureus [4]
  MIC: 0.125 µg/mL
Enterococcus faecium [5]
  MIC: 32 µg/mL
[6]
  MIC: 8 µg/mL
[7]
  MIC: 4 µg/mL
Klebsiella pneumoniae [8]
  MIC: > 128 µg/mL
Proteus vulgaris
  MIC: 0.125 µg/mL
Pseudomonas aeruginosa [9]
  MIC: 8 µg/mL
Klebsiella aerogenes [10]
  MIC: ≤ 0.03 µg/mL
Escherichia coli [11]
  MIC: 64 µg/mL
Staphylococcus aureus [12]
  MIC: 0.125 µg/mL
[13]
  MIC: 0.5 µg/mL
[14]
  MIC: 0.5 µg/mL
Enterobacter cloacae [15]
  MIC: ≤ 0.03 µg/mL
Enterococcus faecium [16]
  MIC: 32 µg/mL
Klebsiella pneumoniae [17]
  MIC: 8 µg/mL
Staphylococcus aureus [18]
  MIC: 0.125 µg/mL
Pseudomonas aeruginosa [19]
  MIC: 0.5 µg/mL
Escherichia coli [20]
  MIC: ≤ 0.03 µg/mL
Klebsiella pneumoniae [21]
  MIC: 16 µg/mL
Enterobacter cloacae [22]
  MIC: 128 µg/mL
Staphylococcus aureus [23]
  MIC: 0.125 µg/mL
Klebsiella pneumoniae [24]
  MIC: ≤ 0.03 µg/mL
[25]
  MIC: 2 µg/mL
Staphylococcus aureus [26]
  MIC: 32 µg/mL
Escherichia coli [27]
  MIC: 16 µg/mL
Providencia rettgeri
  MIC: ≤ 0.03 µg/mL
[28]
  MIC: 0.25 µg/mL
Escherichia coli [29]
  MIC: 16 µg/mL
Serratia marcescens
  MIC: 0.06 µg/mL
Enterococcus faecalis [30]
  MIC: 0.5 µg/mL
Proteus mirabilis
  MIC: 4 µg/mL
Enterococcus faecium [31]
  MIC: 64 µg/mL
Enterococcus faecalis [32]
  MIC: 0.5 µg/mL
Enterococcus faecalis [33]
  MIC: > 128 µg/mL
Enterobacter cloacae [34]
  MIC: 32 µg/mL
Citrobacter freundii
  MIC: ≤ 0.03 µg/mL
Escherichia coli [35]
  MIC: ≤ 0.03 µg/mL
Klebsiella pneumoniae [36]
  MIC: ≤ 0.03 µg/mL
Klebsiella pneumoniae [37]
  MIC: 8 µg/mL

## CN(C)c1cc(NC(=O)CNC(C)(C)C)c(O)c2c1C[C@H]1C[C@H]3[C@H](N(C)C)C(O)=C(C(N)=O)C(=O)[C@@]3(O)C(O)=C1C2=O [TIGECYCLINE]
Klebsiella aerogenes [1]
  MIC: 1 µg/mL (≈ 1.71 µM)
[6]
  MIC: 1 µg/mL (≈ 1.71 µM)
Klebsiella pneumoniae [8]
  MIC: 8 µg/mL (≈ 13.7 µM)
Escherichia coli [11]
  MIC: 0.25 µg/mL (≈ 0.427 µM)
Klebsiella pneumoniae [17]
  MIC: 1 µg/mL (≈ 1.71 µM)
Klebsiella pneumoniae [21]
  MIC: 1 µg/mL (≈ 1.71 µM)
Enterobacter cloacae [22]
  MIC: 1 µg/mL (≈ 1.71 µM)
Klebsiella pneumoniae [38]
  MIC: 0.5 µg/mL (≈ 0.854 µM)
[25]
  MIC: 0.5 µg/mL (≈ 0.854 µM)
Escherichia coli [27]
  MIC: 0.5 µg/mL (≈ 0.854 µM)
Enterobacter cloacae [34]
  MIC: 8 µg/mL (≈ 13.7 µM)

## C[C@@H](O)[C@H]1C(=O)N2C(C(=O)O)=C(S[C@@H]3CN[C@H](C(=O)N(C)C)C3)[C@H](C)[C@H]12 [MEROPENEM]
Klebsiella aerogenes [1]
  MIC: 32 µg/mL (≈ 83.4 µM)
[6]
  MIC: 32 µg/mL (≈ 83.4 µM)
Escherichia coli [11]
  MIC: 4 µg/mL (≈ 10.4 µM)
Klebsiella pneumoniae [17]
  MIC: 32 µg/mL (≈ 83.4 µM)
Klebsiella pneumoniae [21]
  MIC: 64 µg/mL (≈ 167 µM)
Enterobacter cloacae [22]
  MIC: 32 µg/mL (≈ 83.4 µM)
Klebsiella pneumoniae [38]
  MIC: 8 µg/mL (≈ 20.9 µM)
[25]
  MIC: 64 µg/mL (≈ 167 µM)
Escherichia coli [27]
  MIC: 2 µg/mL (≈ 5.22 µM)
Enterobacter cloacae [34]
  MIC: 2 µg/mL (≈ 5.22 µM)
